Measurements taken from ChEMBL document CHEMBL5226338, “Molecular hybrids: A five-year survey on structures of multiple targeted hybrids of protein kinase inhibitors for cancer therapy” (Eur J Med Chem, 2021).

Tests used:
[1] = biological target: T1, Epidermal growth factor receptor (Homo sapiens, UniProt P00533); test: Inhibition of EGFR (unknown origin)
[2] = biological target: T1, Epidermal growth factor receptor; test: Inhibition of GST-fused EGFR (unknown origin) in presence of ATP by microplate reader analysis
[3] = biological target: Tubulin beta; test: Inhibition of beta-tubulin polymerization in human HCT-116 cells using TMB substrate by ELISA; format: cell-based
[4] = biological target: DNA topoisomerase 1 (Homo sapiens, UniProt P11387); test: Inhibition of human DNA topoisomerase 1 incubated for 2 hrs by ELISA
DNA topoisomerase 1, sequence (P11387 whole entry): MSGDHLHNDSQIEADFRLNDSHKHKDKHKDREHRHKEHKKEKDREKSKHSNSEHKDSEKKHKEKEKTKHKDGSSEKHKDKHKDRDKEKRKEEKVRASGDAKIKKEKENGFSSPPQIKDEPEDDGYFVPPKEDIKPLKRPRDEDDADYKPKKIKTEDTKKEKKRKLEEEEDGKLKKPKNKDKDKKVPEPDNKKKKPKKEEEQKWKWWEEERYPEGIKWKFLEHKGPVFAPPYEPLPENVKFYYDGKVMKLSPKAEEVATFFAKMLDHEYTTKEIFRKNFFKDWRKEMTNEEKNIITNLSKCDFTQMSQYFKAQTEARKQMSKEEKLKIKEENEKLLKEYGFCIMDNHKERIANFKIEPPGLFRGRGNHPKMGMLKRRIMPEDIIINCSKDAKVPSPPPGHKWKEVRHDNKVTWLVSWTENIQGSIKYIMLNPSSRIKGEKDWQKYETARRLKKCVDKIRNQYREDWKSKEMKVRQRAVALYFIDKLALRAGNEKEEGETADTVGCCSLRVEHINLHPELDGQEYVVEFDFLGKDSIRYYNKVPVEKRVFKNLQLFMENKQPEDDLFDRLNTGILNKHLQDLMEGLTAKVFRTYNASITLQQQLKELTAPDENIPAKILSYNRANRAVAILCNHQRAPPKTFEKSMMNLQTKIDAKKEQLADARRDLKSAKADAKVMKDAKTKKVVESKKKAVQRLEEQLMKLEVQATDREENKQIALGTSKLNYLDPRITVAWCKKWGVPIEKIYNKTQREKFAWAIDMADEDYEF

[5] = biological target: T2, Vascular endothelial growth factor receptor 2 (Homo sapiens, UniProt P35968); test: Inhibition of VEGFR2 (unknown origin) using biotin-gastrin precursor (Tyr87) peptide as substrate incubated for 1 hr in presence of ATP by spectrophotometric analysis relative to sorafenib; details: concentration not given here
T2 sequence (P35968 whole entry): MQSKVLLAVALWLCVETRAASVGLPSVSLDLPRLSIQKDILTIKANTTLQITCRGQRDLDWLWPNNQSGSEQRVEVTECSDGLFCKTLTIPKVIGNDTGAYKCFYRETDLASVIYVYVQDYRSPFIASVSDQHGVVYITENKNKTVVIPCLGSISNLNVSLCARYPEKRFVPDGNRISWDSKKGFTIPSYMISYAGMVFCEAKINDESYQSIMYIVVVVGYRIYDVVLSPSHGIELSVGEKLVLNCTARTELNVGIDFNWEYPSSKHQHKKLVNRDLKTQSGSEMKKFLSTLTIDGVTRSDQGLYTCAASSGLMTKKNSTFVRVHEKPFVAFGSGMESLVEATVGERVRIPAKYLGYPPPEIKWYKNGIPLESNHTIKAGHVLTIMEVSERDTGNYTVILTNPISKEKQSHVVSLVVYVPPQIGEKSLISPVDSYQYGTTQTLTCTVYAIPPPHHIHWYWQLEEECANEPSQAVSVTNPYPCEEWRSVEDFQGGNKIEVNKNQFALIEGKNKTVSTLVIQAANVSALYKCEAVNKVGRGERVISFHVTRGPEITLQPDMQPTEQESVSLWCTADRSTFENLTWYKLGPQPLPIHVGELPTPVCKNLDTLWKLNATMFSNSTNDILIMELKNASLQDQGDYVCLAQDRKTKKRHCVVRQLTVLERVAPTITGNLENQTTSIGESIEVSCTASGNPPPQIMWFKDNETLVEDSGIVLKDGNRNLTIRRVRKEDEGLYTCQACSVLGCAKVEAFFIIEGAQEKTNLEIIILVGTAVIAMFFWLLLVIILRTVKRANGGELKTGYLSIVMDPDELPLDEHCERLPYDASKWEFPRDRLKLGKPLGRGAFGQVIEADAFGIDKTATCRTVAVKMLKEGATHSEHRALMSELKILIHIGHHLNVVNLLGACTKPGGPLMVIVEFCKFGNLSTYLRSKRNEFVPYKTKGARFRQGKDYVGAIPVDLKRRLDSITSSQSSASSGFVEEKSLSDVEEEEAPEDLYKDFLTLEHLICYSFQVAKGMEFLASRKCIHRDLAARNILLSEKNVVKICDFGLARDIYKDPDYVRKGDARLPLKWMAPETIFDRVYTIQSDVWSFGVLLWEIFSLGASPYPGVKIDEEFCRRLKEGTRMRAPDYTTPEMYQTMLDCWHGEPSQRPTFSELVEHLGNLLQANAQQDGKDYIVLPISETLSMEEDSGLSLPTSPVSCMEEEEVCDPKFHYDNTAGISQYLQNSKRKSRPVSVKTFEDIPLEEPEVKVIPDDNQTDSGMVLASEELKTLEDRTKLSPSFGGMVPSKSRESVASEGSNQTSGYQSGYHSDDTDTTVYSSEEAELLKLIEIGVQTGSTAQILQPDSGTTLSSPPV

[6] = biological target: T1, Epidermal growth factor receptor; test: Inhibition of EGFR (unknown origin) using poly (Glu,Tyr) 4:1 as substrate incubated for 1 hr in presence of ATP by spectrophotometric analysis relative to sorafenib; details: concentration not given here
[7] = test system: A-431; test: Cytotoxicity against human A-431 cells; format: functional, cell-based
[8] = biological target: T3, Protein deacetylase HDAC6 (Homo sapiens, UniProt Q9UBN7); test: Inhibition of HDAC6 (unknown origin)
T3 sequence (Q9UBN7 whole entry): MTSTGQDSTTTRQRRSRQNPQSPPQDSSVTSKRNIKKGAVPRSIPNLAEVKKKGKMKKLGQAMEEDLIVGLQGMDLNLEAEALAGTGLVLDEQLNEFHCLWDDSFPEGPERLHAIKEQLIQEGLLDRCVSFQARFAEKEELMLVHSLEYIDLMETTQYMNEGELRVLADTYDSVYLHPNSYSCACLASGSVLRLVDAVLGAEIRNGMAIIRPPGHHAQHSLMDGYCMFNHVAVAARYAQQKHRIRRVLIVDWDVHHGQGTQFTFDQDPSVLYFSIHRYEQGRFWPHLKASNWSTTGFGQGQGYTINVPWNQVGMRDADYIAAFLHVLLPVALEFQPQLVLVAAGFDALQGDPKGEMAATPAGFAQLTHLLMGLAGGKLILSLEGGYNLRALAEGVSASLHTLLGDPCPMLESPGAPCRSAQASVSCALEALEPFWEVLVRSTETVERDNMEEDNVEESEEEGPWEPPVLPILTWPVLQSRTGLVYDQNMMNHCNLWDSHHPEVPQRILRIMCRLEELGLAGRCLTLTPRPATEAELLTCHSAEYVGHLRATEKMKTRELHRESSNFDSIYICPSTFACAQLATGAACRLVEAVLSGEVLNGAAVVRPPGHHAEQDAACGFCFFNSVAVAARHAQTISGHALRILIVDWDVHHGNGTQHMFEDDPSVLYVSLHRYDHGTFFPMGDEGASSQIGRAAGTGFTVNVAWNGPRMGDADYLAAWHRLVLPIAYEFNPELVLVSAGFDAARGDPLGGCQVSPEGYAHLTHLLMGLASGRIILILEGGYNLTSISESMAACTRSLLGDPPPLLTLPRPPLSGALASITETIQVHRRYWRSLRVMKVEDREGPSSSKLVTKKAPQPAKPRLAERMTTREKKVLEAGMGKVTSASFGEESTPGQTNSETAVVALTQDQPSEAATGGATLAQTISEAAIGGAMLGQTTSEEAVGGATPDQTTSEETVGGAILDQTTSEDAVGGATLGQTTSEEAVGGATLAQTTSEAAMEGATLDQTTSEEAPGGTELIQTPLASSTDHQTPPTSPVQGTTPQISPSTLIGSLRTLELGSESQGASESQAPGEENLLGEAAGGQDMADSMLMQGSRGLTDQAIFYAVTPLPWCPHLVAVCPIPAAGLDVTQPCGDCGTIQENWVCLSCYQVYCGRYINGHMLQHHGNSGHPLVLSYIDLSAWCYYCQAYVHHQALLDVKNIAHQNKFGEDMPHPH

[9] = biological target: Histone deacetylase 1 (Homo sapiens, UniProt Q13547); test: Inhibition of HDAC1 (unknown origin)
Histone deacetylase 1, sequence (Q13547 whole entry): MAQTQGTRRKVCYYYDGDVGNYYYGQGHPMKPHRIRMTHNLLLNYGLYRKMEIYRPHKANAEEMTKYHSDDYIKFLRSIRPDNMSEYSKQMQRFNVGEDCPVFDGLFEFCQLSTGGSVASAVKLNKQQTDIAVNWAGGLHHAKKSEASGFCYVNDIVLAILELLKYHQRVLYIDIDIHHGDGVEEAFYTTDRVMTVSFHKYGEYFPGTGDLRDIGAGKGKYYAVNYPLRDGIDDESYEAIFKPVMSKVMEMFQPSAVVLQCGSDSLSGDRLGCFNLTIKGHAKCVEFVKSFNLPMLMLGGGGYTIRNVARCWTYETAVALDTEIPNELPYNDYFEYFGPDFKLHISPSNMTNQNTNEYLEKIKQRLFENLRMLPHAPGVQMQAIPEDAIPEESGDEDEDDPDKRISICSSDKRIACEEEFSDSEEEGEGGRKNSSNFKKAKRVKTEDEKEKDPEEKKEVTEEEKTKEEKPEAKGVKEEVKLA

[10] = test system: NCI-H1975; test: Cytotoxicity against human NCI-H1975 cells; format: functional, cell-based
[11] = Cytotoxicity against human U87 cells; format: functional, cell-based, U-87MG ATCC; details: U-87 MG
[12] = biological target: Tyrosine-protein kinase JAK2 (Homo sapiens, UniProt O60674); test: Inhibition of JAK2 (unknown origin)
Tyrosine-protein kinase JAK2, sequence (O60674 whole entry): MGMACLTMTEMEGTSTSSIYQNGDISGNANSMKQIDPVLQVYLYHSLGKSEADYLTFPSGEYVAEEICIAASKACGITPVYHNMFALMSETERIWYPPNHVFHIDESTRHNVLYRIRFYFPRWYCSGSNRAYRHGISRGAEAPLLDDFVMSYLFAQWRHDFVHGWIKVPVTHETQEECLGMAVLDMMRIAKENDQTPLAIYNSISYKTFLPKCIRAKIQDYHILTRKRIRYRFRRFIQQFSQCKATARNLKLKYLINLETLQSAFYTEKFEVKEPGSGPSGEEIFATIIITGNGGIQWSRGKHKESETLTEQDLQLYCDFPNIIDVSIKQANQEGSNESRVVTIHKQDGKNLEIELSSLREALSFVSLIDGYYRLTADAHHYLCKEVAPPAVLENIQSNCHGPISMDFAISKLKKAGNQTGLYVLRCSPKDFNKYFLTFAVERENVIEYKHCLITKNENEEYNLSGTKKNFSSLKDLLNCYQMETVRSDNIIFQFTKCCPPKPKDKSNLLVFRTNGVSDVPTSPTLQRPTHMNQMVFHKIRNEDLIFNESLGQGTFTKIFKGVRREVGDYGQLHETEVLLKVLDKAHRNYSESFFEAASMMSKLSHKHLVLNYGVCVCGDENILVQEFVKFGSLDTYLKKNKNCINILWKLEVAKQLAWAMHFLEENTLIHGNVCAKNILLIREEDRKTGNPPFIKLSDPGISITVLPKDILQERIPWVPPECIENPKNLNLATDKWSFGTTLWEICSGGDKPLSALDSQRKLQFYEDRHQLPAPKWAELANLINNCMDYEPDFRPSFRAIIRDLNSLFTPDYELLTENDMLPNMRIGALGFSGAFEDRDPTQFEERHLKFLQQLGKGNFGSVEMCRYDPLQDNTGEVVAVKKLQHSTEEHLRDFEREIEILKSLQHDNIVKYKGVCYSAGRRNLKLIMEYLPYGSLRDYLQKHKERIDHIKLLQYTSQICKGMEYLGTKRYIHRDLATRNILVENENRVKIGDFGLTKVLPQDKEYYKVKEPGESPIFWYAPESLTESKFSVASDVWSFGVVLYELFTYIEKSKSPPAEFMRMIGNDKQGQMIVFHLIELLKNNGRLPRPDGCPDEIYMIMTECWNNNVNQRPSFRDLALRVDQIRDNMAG

[13] = biological target: DNA topoisomerase 2-beta (Homo sapiens, UniProt Q02880); test: Inhibition of human DNA topoisomerase 2-beta
[14] = biological target: T2, Vascular endothelial growth factor receptor 2; test: Inhibition of VEGFR2 (unknown origin) by ELISA
[15] = biological target: T1, Epidermal growth factor receptor; test: Inhibition of EGFR (unknown origin) by ELISA
[16] = test system: HepG2; test: Cytotoxicity against human HepG2 cells assessed as inhibition of cell growth incubated for 24 hrs by MTT assay; format: functional, cell-based; details: HepG2, 24 h
[17] = biological target: Tubulin; test: Inhibition of tubulin (unknown origin) polymerization; format: protein-complex assay, Homo sapiens
[18] = biological target: Janus Kinase (JAK) (Homo sapiens, UniProt P52333+P23458+O60674+P29597); test: Inhibition of JAK (unknown origin); format: protein assay
[19] = test system: MCF7; test: Cytotoxicity against human MCF7 cells assessed as inhibition of cell growth incubated for 24 hrs by MTT assay; format: functional, cell-based; details: MCF7, 24 h
[20] = test system: MDA-MB-231; test: Cytotoxicity against human MDA-MB-231 cells assessed as inhibition of cell growth incubated for 24 hrs by MTT assay; format: functional, cell-based; details: MDA-MB-231, 24 h
[21] = biological target: Tubulin; test: Inhibition of MAP-rich tubulin (unknown origin) polymerization; format: protein-complex assay, Homo sapiens
[22] = Inhibition of tyrosine kinase in human PANC-1 cells; format: cell-based
[23] = test system: DU-145; test: Antiproliferative activity against human DU-145 cells assessed as inhibition of cell growth incubated for 24 to 72 hrs by MTT assay; format: functional, cell-based
[24] = test system: BGC-823; test: Antiproliferative activity against human BGC-823 cells assessed as inhibition of cell growth incubated for 24 to 72 hrs by MTT assay; format: functional, cell-based
[25] = test system: HGC-27; test: Antiproliferative activity against human HGC-27 cells assessed as inhibition of cell growth incubated for 24 to 72 hrs by MTT assay; format: functional, cell-based
[26] = test system: PANC-1; test: Antiproliferative activity against human PANC-1 cells assessed as inhibition of cell growth incubated for 24 to 72 hrs by MTT assay; format: functional, cell-based
[27] = test system: T-24; test: Antiproliferative activity against human T24 cells assessed as inhibition of cell growth incubated for 24 to 72 hrs by MTT assay; format: functional, cell-based
[28] = test system: CAPAN-1; test: Antiproliferative activity against human CAPAN-1 cells assessed as inhibition of cell growth incubated for 24 to 72 hrs by MTT assay; format: functional, cell-based
[29] = Inhibition of tyrosine kinase in human CAPAN-1 cells; format: cell-based
[30] = biological target: DNA topoisomerase 2-alpha (Homo sapiens, UniProt P11388); test: Inhibition of human topoisomerase 2 alpha assessed as relaxation of supercoiled plasmid pBR322 DNA incubated for 30 mins by ethidium bromide staining based agarose gel electrophoresis
[31] = biological target: Tubulin beta (Homo sapiens) (UniProt P68371+Q9H4B7+Q13509+P04350+Q3ZCM7+P07437+Q13885+Q9BVA1+Q9BUF5+A6NNZ2); test: Inhibition of beta-tubulin polymerization in human HepG2 cells using TMB substrate by spectrophotometry analysis relative to control; format: cell-based; details: concentration not given here
[32] = biological target: T2, Vascular endothelial growth factor receptor 2; test: Inhibition of human VEGFR2 using TMB as substrate by ELISA

T1 sequence (P00533 whole entry, the tested form may be a part): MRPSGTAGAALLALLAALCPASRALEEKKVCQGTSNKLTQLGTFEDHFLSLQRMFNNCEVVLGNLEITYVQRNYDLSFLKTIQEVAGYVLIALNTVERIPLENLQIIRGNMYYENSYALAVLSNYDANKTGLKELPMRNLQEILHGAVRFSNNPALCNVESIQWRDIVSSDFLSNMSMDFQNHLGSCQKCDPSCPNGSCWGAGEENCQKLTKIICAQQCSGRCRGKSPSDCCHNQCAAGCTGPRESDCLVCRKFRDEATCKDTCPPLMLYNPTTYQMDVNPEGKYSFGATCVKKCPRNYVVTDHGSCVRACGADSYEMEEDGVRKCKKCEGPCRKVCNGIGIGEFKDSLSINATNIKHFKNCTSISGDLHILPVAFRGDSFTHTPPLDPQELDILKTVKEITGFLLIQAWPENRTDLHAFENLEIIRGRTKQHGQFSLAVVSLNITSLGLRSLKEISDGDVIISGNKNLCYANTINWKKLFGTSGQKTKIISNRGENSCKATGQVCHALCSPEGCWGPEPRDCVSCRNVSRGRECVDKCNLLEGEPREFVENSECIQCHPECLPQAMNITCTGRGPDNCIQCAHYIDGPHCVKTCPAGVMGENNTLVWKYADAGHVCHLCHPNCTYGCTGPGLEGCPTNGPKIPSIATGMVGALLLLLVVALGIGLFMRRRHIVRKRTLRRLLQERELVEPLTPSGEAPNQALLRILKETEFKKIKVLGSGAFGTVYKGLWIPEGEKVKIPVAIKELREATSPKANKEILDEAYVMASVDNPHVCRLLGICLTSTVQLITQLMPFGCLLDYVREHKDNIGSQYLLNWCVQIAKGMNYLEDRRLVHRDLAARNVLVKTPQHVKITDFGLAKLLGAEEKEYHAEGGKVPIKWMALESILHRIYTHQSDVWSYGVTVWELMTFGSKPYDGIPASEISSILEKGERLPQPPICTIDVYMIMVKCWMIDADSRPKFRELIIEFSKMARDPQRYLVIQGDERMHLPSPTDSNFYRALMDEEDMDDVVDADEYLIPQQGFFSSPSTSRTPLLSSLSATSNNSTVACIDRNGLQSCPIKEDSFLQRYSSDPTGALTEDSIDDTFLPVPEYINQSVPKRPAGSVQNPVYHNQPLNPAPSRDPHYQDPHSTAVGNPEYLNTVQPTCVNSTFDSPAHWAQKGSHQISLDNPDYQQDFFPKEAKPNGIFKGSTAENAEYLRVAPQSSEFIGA

O=[N+]([O-])OCCCOc1ccc(Nc2ncnc3c2cnn3-c2ccc(Br)cc2)cc1
IC50 [1]: 3000 nM

CCc1nnc2c(Nc3ccc(C(=O)/C=C/c4cc(OC)c(OC)c(OC)c4)cc3)nc3ccccc3n12
IC50 [2]: 93 nM
IC50 [3]: 8400 nM

N#CC1=C(N)Oc2ccccc2C1c1cc2ccccc2n2nnnc12 (stereo not given)
IC50 [4]: 278 nM
inhibition [5]: 60%
inhibition [6]: 30%

O=C(CCCCCn1cc(-c2ccc3ncnc(Nc4ccc(Br)cc4F)c3c2)nn1)NO
IC50 [7]: 260 nM
IC50 [8]: 4.3 nM
IC50 [1]: 10.3 nM
IC50 [9]: 1.1 nM
IC50 [10]: 910 nM

C=C[C@]1(C)CC[C@@H](C(=C)COC(=O)CCC(=O)CCCOc2no[n+]([O-])c2S(=O)(=O)c2ccccc2)C[C@H]1C(=C)C
IC50 [11]: 2 nM

CS(=O)(=O)Nc1ccc(-c2ccnc(Nc3ccc(N4CCC(CCc5ccc(/C=C/CC(=O)NO)cc5)CC4)cc3)n2)cc1
IC50 [8]: 46 nM
IC50 [12]: 8 nM

Cc1ccc2c(=O)n(Cc3ccccc3)c(SCc3cn(-c4ccc(C(=O)O)cc4)nn3)nc2c1
IC50 [13]: 25.8 nM
IC50 [14]: 126 nM
IC50 [15]: 38.8 nM

CC(=O)Nc1ccc(-c2ccnc(NCc3ccc(OCCCCCC(=O)NO)cc3)n2)cc1
IC50 [8]: 20 nM
IC50 [12]: 2.6 nM
IC50 [9]: 306 nM

CCCOCCSc1nc(-c2ccccc2Cl)nn1CCOCCC
IC50 [16]: 1300 nM
IC50 [2]: 867 nM
IC50 [17]: 107 nM

O=C(CCCCCCn1cc(Nc2ncc(Cl)c(Nc3ccc(Cl)cc3)n2)cn1)NO
IC50 [18]: 4 nM

Fc1ccc(C2=Nc3ccc(F)cc3CN2/N=C\c2ccccc2)cc1
IC50 [2]: 75.2 nM
IC50 [19]: 350 nM
IC50 [20]: 280 nM
IC50 [21]: 9250 nM

C=C[C@]1(C)CC[C@@H](C(=C)COC(=O)CNC(=O)CCC(=O)OCCCCOc2no[n+]([O-])c2S(=O)(=O)c2ccccc2)C[C@H]1C(=C)C
IC50 [11]: 2 nM

CN1CCN(c2cc3c(cc2F)C(=O)C(/C=C2\CN(C4CC4)c4cc(N5CCNCC5)c(F)cc4C2=O)CN3C2CC2)CC1 (stereo not given)
IC50 [22]: 3100 nM
IC50 [23]: 312 nM
IC50 [24]: 312 nM
IC50 [25]: 312 nM
IC50 [26]: 312 nM
IC50 [27]: 312 nM
IC50 [28]: 312 nM
IC50 [29]: 640 nM
IC50 [30]: 1600 nM

COc1ccc(NC(=O)c2c(Nc3ccccc3)sc(C#N)c2NC(=O)CNc2ccc(Cl)cc2)cc1
inhibition [31]: 73%
IC50 [32]: 590 nM
